This note sets out measurements from article PMC7816196, “Antitubercular 2-Pyrazolylpyrimidinones: Structure–Activity Relationship and Mode-of-Action Studies” (Journal of Medicinal Chemistry, 2021).

Where two headings read alike, the source gives them in different places. Bounds are passed on as bounds.

One series concerns Mtb H37Rv. Nature of the series: MIC against Mtb H37Rv, Alamar Blue broth microdilution. Format: cell-based, Mycobacterium tuberculosis.
The test system of another series is CHO cell-line. Nature of the series: Cytotoxicity, MTT assay, CHO cells. Particulars: read-out: Cytotoxicity (CHO IC50).
Series [1] is described as follows: Kinetic aqueous solubility at pH 7.4. Format: physicochemical. The following applies: aqueous (kinetic) solubility at pH 7.4; read-out: Solubility. The method, then: 3) In vitro ADME - assays
The kinetic solubility assay was p erfo rmed using a miniaturised shake flask method. 10 mM stock solutions of each of the test compounds were used to prepare calibration standards (10-220 µM) in DMSO. The same 10 mM stock soluti ons were accurately dispensed in duplicat e into 96-well plates and the DMSO dried down (MiVac GeneVac, 90 min, 37 °C). Thereafter, the samples were reconstituted (200 µM) in phosphate buffered saline (pH 7. 4) and shaken (20 hours,25 °C). The solutions were centrifuged, and the supernatant was an alysed by means of HPLC-DAD (Agilent 1200 Rapid Resolution HPLC with a diode array detector). Best fit calibration curves were constructed using the calibration standards, which were used to determine the aqueous samples’ solubility.4
The metabolic stability assay was performed in dup licate in a 96-well micro t itre plate. The test compounds (0.1 µM) were incubated individually in mouse, rat and pooled human liver microsomes (final protei n concentration of 0.4 m g/mL; XenoTech, Lenexa, KS), suspended in 0.1M phosphate buffer (pH 7.4) for predetermined time points, in the presence and abs ence of the cofactor NADPH (1 mM). Reactions were quenched by adding 300 µL of ice cold acetonitrile containing internal standard (carbamazepine, 0.0236 µg/mL). The samples were centrifuged and test in the supernatant were an alysed by means of LC-MS/MS ((Agilent Rapid Resolution HPLC, AB SCIEX 4500 MS). The rel ative loss of parent compound over time w as monitored and plots (concentration vs. time) were prepared per compound to determine the first order rate constant for compound depletion. This was in turn used to calculate h alf-life, in vitro intrinsic clearance and in vivo hepatic extraction ratio. Metabolite search es were not conducted during the met abolic stability assay.5

In the case of “6-(3,5-Dimethyl-1H-pyrazol-1-yl)-4-phenylpyridin-2(1H)-one [Compound 5]”, the MIC with Mtb H37Rv is on record as over 50 µM; against Mtb H37Rv (supplement csv, medium not stated) it was over 50 µM. In addition, the IC50 with CHO cell-line was over 50 µM. In series [1], the solubility at 20 h was found to be 185 µM.
